Source: paper PMC8472513, “(−)-6-epi-Artemisinin, a Natural Stereoisomer of (+)-Artemisinin in the Opposite Enantiomeric Series, from the Endemic Madagascar Plant Saldinia proboscidea, an Atypical Source” (Molecules, 2021)
Where two headings read alike, the source gives them in different places.

Tests used:
[1] = test system: haem polymerization; test: haem polymerization inhibitory activity (HPIA) assay; assay type: biochemical; details: haematin, pH 2.6, 37 °C, 24 h; read-out: IC50, inhibition of haem polymerization formation
Procedure: Antimalarial activity was tested to (−)-6-epi-artemisinin (2) based on inhibition of haem polymerization. Haem is a by-product of haemoglobin digestion […]. It is potentially toxic to biological membranes and parasite enzymes, and it is thus sequestered in the form of an insoluble crystalline polymer, haemozoin or malaria pigment. Identifying molecules that interfere with haem polymerization is the basic principle of the assay. Haem can be polymerized in vitro, in the absence of proteins, from a solution of haematin at 70 °C or 37 °C at acidic pH. In vitro quantification of haem polymerization allows the identification of molecules with haem polymerization inhibitory activity (HPIA) and the assessment of their HPIA, relative to that of standard antimalarials like chloroquine.
100 microliters of a 0.5 mM solution of haematin, previously dissolved in 0.1 M NaOH, was distributed in 96-well U-bottomed microplates. […] The DMSO-soluble fraction (fraction II) was collected, and the pellet, consisting of a pure precipitate of haematin, was dissolved in 0.1 M NaOH (fraction III) for spectroscopic quantification. […] The amount of haematin was determined by measuring the absorbance at 405 nm using a microtiter plate reader. […]
Statistical analysis. […] Data were analyzed by Excel Microsoft. […]

[2] = test system: SARS-CoV-2; test: microbe, parasite or virus in culture; assay type: cell-based; details: Vero E6 cells; for EC50: MOI 0.01, 24 h post infection, read-out: EC50, SARS-CoV-2 inhibitory assay
[3] = test system: SARS-CoV-2; set-up: method as in PMID 32786284; details: read-out: EC50, inhibitory effect on SARS-CoV-2; cited from earlier work
[4] = test system: MCF breast cancer cells; details: read-out: IC50, antiproliferative activity, cited from earlier work
[5] = test system: W2 apoptotic competent and D3 apoptotic deficient mouse epithelial cell lines; test: apoptosis induction assay (MTT, W2 vs D3 cells); assay type: cell-based; details: 48 h
Excerpt: However, the antiproliferative activity of different artemisinin isomers has never been studied in the past. […] To address this subject, we performed an apoptosis induction assay with compound 2 in order to evaluate the effect of the change in configurations on this activity. To develop a cell-based assay specific for the identification of apoptosis-inducing compounds that are potential antiproliferative agents, we used two genetically engineered mouse epithitial cell lines: W2 apoptotic competent and D3 apoptotic deficient. Compounds that have the capacity to kill W2 and not D3 cells are consistent with proapoptotic, potentially antiproliferative activity. Compounds that meet these criteria activate apoptosis upstream in a pathway that requires Bax and Bak. […]
Apoptosis induction in the presence of compound 2 was carried out as follows. […] Cell viability was determined using a modification of the MTT assay, where the reduction of yellow tertazolium salt (MTT-3-(4,5-Dimethylthiazol-2-yl)-2,5) to purple formazan indicates mitochondrial activity, and thus cell viability. […] After 30 min incubation at 37 °C with shaking, absorbance was read at 570 nm on a Spectra MAX 250 (Molecular Devices) plate reader. Differential growth from time 0 to 48 h was calculated. […]

[6] = test system: Vero E6 cells; details: read-out: CC50, cytotoxicity against Vero E6 cells; CCK8
[7] = in vitro; details: African green monkey, CC50, cytotoxicity against Vero E6 cells, CCK8

CCN(CC)CCCC(C)Nc1ccnc2cc(Cl)ccc12 (stereo not drawn) [chloroquine, reference compound]
IC50 [1]: 0.018 ± 1e-06 µM

C[C@@H]1CC[C@H]2[C@@H](C)C(=O)O[C@@H]3O[C@@]4(C)CC[C@@H]1[C@]32OO4 [compound 1, (+)-artemisinin]
inhibition of growth of SARS-CoV-2 (in words) [2]: inhibited the growth of SARS-CoV-2
EC50 [3]: 64 µM
IC50 ([4]; MCF breast cancer cells): 9.13 ± 0.07 µM

CC1CCC2C(C)C(=O)OC3OC4(C)CCC1C32OO4 (single isomer, unassigned; (-)) [compound 2, (−)-6-epi-artemisinin]
IC50 ([5]; Mus musculus, Epithelial cell, read-out: IC50, induction of apoptosis, W2/D3 cells, 48 h, MTT): 10 µM
IC50 ([5]; read-out: IC50, induction of apoptosis, W2/D3 cells, MTT): 11 ± 0.71 µM
EC50 ([2]; Severe acute respiratory syndrome coronavirus 2, Vero C1008, 24 h): 49 ± 0.32 µM
inhibition of growth of SARS-CoV-2 (in words) [2]: inhibited the growth of SARS-CoV-2
IC50 [1]: 0.0035 ± 2e-06 µM
CC50 [6]: > 250 µM
CC50 [7]: > 200 µM

CC1CCC2C(C)C(=O)OC3OC4(C)CCC1C32OO4 (stereo not drawn) [compound 3, 9 epimer of 2]
inhibition of growth of SARS-CoV-2 (in words) [2]: inhibited the growth of SARS-CoV-2
EC50 [2]: 54 ± 0.27 µM
CC50 [6]: > 200 µM

C[C@H]1[C@@H](O)O[C@@H]2O[C@@]3(C)CC[C@H]4[C@H](C)CC[C@@H]1[C@@]24OO3 [dihydroartemisinin]
IC50 ([4]; these same cells (MCF)): 5.27 ± 0.01 µM
